This is an account of results in patent US10052304B2, “Compositions and methods for cancer therapy” (UNIVERSITY OF IOWA RESEARCH FOUNDATION, priority 2015, dated 2018).

Where only a bound is given, the exact number is not on record here.

One data set deals with ARP1. In words: Colony formation on soft agar, ARP1 myeloma cells. The following applies: 1 h treatment, colonies after 10-14 days. It counts as cell-based, human. An excerpt:
A two-layer agar system was used, and colonies were visualized after 10-14 days.

For the next data set, the system named is ARP1 myeloma cells. In words: ARP1 myeloma tumor-bearing model, IP injection, NOD-SCID mice. It counts as in vivo. To be noted: ascorbate 4 g/kg approximately 15 days, n=3. As to the method:
This experiment was repeated in a tumor-bearing mouse model through IP injection of ARP1 myeloma cells, which allows a solid tumor growth when implanted in mice purpose. A total of […] ARP1 MM cells (in 50 μl PBS) per mouse were injected into NOD-SCID mice through IP.

The subject of a further data set is HBEpCs. As to the kind of experiment: Cellular labile iron pool (Calcein-AM flow cytometry), HBEpCs. The format is cell-based, human. The following applies: increasing doses of ascorbate. As to the method: The labile iron pool (LIP) was visualized using the fluorescent dye Calcein-AM as previously described (Epsztejn et al., 1997) with modifications. After labeling, samples were divided into two flow cytometry sample tubes, to which 100 μM 2′,2′-bipyridyl (BIP) was added to one tube and analyzed by flow cytometry. BIP tubes were incubated for at least 15 minutes before analysis to allow for full chelation of intracellular labile iron. The LIP (A.U.)=MFIBIP−MFINoBIP was normalized against the control samples to calculate the relative labile iron pool.
The labile iron pool (LIP) was visualized using the fluorescent dye Calcein-AM as previously described with modifications (Epsztejn et al., 1997). Briefly, after sample treatment, cells were trypsinized, spun at 1,200 rpm for 5 min, and resuspended at approximately 1×10^6 cells mL-1 in 500 nM Calcein-AM in PBS. Samples were incubated for 15 min at 4% O2 in a humidity controlled environment (37° C., 5% CO2). Subsequently, samples were pelleted, washed in PBS, and resuspended in 1 mL PBS before dividing each sample into two flow cytometry sample tubes, to which 100 μM 2′,2′-bipyridyl (BIP) was added to one tube. Samples were kept at room temperature and analyzed on a LSR II Flow Cytometer (BD Biosciences; λex=488 nm, λem=515/20 nm). […]

The next data set relates to aconitase. In words: Total cellular aconitase activity after ascorbate exposure. The format is cell-based, human. To be noted: 15 pmol cell^−1 ascorbate for 1 h, NSCLC cell lysates. The method, then:
(§1) Exponentially growing cells were scraped and frozen as dry pellets until assayed for total activity. Aconitase activity was measured as the rate of appearance of NADPH (at 340 nm; Beckman DU 800 spectrophotometer, Brea, Calif.) for 45 min during the reaction of 200 μg total sample protein with 200 μM NADP^+ and 10 U isocitrate dehydrogenase as previously described (Case et al., 2011). Maximal ETC complex activity was measured as previously described (Birch-Machin et al., 1994). Complex I activity was quantified as the rate of rotenone-inhibitable NADH oxidation (320 nm; c=6.22 mM^−1 cm^−1). Complex II activity as the difference in the rate of DCIP reduction in the presence and absence of succinate (at 600 nm; ε=19.1 mM^−1 cm^−1). Complex IV activity was assayed as the rate of oxidation of cytochrome c ([…]; ε=19.6 mM^−1 cm^−1). Rates of activities were normalized to total protein by Lowry.
Exponentially growing cells were scraped and frozen as dry pellets until assayed for total aconitase activity adapted from as previously described (Case et al., 2011). […] Protein was quantified by the Lowry method (Lowry et al., 1951). Aconitase activity was measured as the rate of appearance of NADPH (at 340 nm; Beckman DU 800 spectrophotometer, Brea, Calif.) for 45 min during the reaction of 200 μg total sample protein with 200 μM NADP+ and 10 U isocitrate dehydrogenase.

Another data set relates to ETC complex II. In words: ETC complex II activity after ascorbate exposure. It counts as cell-based, human. To be noted: 15 pmol cell^−1 ascorbate for 1 h, NSCLC cell lysates. As to the method: as §1
Exponentially growing cells were scraped and frozen as dry pellets until assayed for protein content (Lowry) and maximal ETC complex activity as previously described (Birch-Machin et al., 1994). Briefly, dry cell pellets were resuspended in 20 mM potassium phosphate buffer and sonicated 3×10 s each. Rates of activities were normalized to total protein. Complex I activity was quantified as the rate of rotenone-inhibitable NADH oxidation (320 nm; ε=6.22 mM-1 cm-1). […]

The subject of a further data set is NSCLC cells. In words: Intracellular H2O2 with PeroxyOrange-1, NSCLC cells. It counts as cell-based, human. The following applies: ascorbate 15 pmol cell^−1. As to the method: To visualize intracellular H2O2 levels, the selectively sensitive fluorescent probe PeroxyOrange-1 was utilized as previously described with modifications (Dickinson et al., 2010). 1×10^5 cells were plated and grown in their respective media for 48 h. The complete protocol was conducted in the dark with minimal ambient lighting. Cells were washed with PBS and incubated with 10 uM PO-1 in phenol red free RPMI supplemented with HBE growth supplements for 1 h at 37° C. Cells were then washed in PBS and placed back in phenol red free RPMI supplemented with HBE growth supplements. […] At times indicated, cells were placed on ice for the remainder of the protocol, washed, and trypsinized with phenol red free 0.5% trypsin. After 15 min, cells still attached were scraped and all cells were collected in 15 mL conical vials containing PBS+10% FBS to neutralize the trypsin reaction. Cells were spun at 1200 rpm for 5 min at 4° C., resuspended in 300-500 uL PBS and were run on a LSR II Flow Cytometer (BD Biosciences) with λex=561 nm, λem=585/20 nm. The mean fluorescence intensity (MFI) was analyzed (FlowJo™) and corrected for autoflourescence against unlabeled cells. Normalized MFI was calculated by comparing MFI for a given treatment group against control.

In data set [1] the test system is stage IV pancreas cancer patients. To be noted: cited from earlier work.

On to `O=C1O[C@H]([C@@H](O)CO)C(O)=C1O` [ascorbate, L-ascorbic acid], for which the “ascorbate dose giving complete growth inhibition (colony formation)” value with ARP1 is on record as at least 10 pmol/cell. Also, the final tumor volume in the data set on ARP1 myeloma cells was determined as 50±30 mm3. Further, the “cellular LIP after ascorbate” value in the data set on HBEpCs is recorded as “not seen”. In addition, the aconitase activity entry with aconitase is “inactivation”. For the same compound, the “ETC complex II activity” value in the data set with ETC complex II is on record as “inactivation”. Besides, the “steady-state levels of H2O2 (PeroxyOrange-1)” value with NSCLC cells was “significantly increased from baseline”. In data set [1] (ascorbate + gemcitabine), the “side effects attributed to the combination” value is “rare and included diarrhea and dry mouth”. Further, the average survival in data set [1] (pharmacological ascorbate + gemcitabine, stage IV pancreas cancer) is given as 14 months.
